According to ChEMBL document CHEMBL5380813, “Discovery of 2H-Indazole-3-carboxamide Derivatives as Novel Potent Prostanoid EP4 Receptor Antagonists for Colorectal Cancer Immunotherapy” (J Med Chem, 2023):

Tested on: not listed separately
Test: Metabolic stability in human liver assessed as intrinsic clearance
Settings: not given

| SMILES | CLint scaled [mL/min/kg] |
| --- | --- |
| O=C(O)c1ccc(CNC(=O)c2c3ccc(F)cc3nn2Cc2ccc(C(F)(F)F)cc2)cc1 | < 8.6 |
| O=C(O)c1ccc(CNC(=O)c2c3ccccc3nn2Cc2ccc(Cl)c(F)c2)cc1 | < 8.6 |
| O=C(O)Cc1ccccc1Nc1c(Cl)cccc1Cl [DICLOFENAC] | 187 |
| C[C@]12CC[C@H]3[C@@H](CCC4=CC(=O)CC[C@@]43C)[C@@H]1CC[C@@H]2O [TESTOSTERONE] | 97.4 |

Target: T1, Cytochrome P450 1A2 (Homo sapiens, UniProt P05177)
T1 sequence (P05177 whole entry): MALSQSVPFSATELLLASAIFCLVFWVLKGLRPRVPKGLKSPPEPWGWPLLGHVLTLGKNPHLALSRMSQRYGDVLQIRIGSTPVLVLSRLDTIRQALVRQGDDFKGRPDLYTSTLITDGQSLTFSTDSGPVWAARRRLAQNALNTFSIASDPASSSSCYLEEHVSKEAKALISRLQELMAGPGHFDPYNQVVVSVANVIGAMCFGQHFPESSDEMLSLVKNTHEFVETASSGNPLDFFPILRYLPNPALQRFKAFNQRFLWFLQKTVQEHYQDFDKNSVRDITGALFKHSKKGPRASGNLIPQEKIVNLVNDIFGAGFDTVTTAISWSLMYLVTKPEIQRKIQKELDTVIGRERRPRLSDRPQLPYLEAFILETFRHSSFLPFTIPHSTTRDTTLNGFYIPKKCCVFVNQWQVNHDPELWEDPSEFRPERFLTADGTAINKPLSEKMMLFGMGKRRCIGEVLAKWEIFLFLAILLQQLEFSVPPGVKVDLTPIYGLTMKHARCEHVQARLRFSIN
Test: Inhibition of CYP1A2 (unknown origin)
Type: ADME
Settings: not given

| SMILES | IC50 [nM] |
| --- | --- |
| O=C(O)c1ccc(CNC(=O)c2c3ccccc3nn2Cc2ccc(C(F)(F)F)cc2)cc1 | > 50000 |

Tested on: CT26
Test: animal or person
Settings: Mus musculus, CT26, po, 240 h, read-out: TGI
Description: Antitumor activity against mouse CT26 cells implanted in BALB/c mouse assessed as tumor growth inhibition at 100 mg/kg, po administered daily for 10 days and measured every 2 days relative to control

| SMILES | inhibition in vivo at 100 mg/kg [%] |
| --- | --- |
| C[C@H](NC(=O)c1c(C(F)F)nn(C)c1Oc1cccc(C(F)(F)F)c1)c1ccc(C(=O)O)cc1 [PALUPIPRANT] | 43.3 |

Target: Prostaglandin E2 receptor EP4 subtype (Rattus norvegicus, UniProt P43114)
Test: Antagonist activity at rat EP4 receptor transfected in HEK293 cells assessed as inhibition of PGE2-induced cAMP production measured for 30 mins by Glosensor cAMP assay
Type: functional, cell-based
Settings: not given

Chain of Prostaglandin E2 receptor EP4 subtype (Rattus norvegicus, UniProt P43114) (P43114 whole entry): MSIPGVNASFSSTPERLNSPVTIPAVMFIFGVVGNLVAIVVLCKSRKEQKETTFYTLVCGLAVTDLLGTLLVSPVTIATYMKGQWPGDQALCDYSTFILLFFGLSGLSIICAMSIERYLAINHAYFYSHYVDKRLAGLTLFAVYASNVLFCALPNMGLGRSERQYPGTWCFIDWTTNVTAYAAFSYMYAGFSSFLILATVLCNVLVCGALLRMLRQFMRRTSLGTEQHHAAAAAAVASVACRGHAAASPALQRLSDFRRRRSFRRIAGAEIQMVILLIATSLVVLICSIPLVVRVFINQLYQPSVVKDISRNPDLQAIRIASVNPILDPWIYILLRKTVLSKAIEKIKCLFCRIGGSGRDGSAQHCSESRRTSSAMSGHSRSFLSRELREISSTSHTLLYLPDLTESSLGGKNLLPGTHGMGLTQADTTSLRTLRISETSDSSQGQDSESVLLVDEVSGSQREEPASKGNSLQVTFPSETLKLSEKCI

| SMILES | IC50 [nM] |
| --- | --- |
| O=C(O)c1ccc(CNC(=O)c2c3ccccc3nn2Cc2ccc(C(F)(F)F)cc2)cc1 | 36.3 |

Target: T2, Prostaglandin E2 receptor EP4 subtype (Homo sapiens, UniProt P35408)
Test: Antagonist activity at EP4 receptor (unknown origin) by GloSensor cAMP assay
Settings: not given

T2 sequence (P35408 whole entry): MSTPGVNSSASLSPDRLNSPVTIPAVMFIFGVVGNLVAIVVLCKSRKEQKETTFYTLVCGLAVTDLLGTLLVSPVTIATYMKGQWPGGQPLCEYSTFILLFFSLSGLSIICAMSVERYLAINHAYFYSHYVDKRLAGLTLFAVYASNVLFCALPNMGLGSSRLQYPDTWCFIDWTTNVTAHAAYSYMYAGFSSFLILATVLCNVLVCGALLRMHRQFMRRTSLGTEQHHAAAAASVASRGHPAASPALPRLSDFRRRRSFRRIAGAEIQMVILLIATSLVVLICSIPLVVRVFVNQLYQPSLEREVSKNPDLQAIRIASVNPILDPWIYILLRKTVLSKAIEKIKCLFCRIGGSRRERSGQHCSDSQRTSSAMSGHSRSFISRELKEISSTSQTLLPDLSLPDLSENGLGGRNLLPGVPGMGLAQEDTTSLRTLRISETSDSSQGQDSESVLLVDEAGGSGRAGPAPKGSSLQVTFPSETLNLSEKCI

| SMILES | IC50 [nM] |
| --- | --- |
| O=C(O)c1ccc(NC(=O)c2c3ccccc3nn2Cc2ccc(F)cc2)cc1 | 3110 |

Target: CYP3A (Homo sapiens, UniProt P08684+P20815+P24462+Q9HB55)
Test: Inhibition of CYP3A (unknown origin) assessed as reduction in midazolam […] activity
Type: ADME, protein assay
Settings: probe midazolam

| SMILES | IC50 [nM] |
| --- | --- |
| O=C(O)c1ccc(CNC(=O)c2c3ccccc3nn2Cc2ccc(C(F)(F)F)cc2)cc1 | > 50000 |

Target: Cytochrome P450 2D6 (Homo sapiens, UniProt P10635)
Test: Inhibition of CYP2D6 (unknown origin)
Type: ADME
Settings: not given

Chain of Cytochrome P450 2D6 (P10635 whole entry): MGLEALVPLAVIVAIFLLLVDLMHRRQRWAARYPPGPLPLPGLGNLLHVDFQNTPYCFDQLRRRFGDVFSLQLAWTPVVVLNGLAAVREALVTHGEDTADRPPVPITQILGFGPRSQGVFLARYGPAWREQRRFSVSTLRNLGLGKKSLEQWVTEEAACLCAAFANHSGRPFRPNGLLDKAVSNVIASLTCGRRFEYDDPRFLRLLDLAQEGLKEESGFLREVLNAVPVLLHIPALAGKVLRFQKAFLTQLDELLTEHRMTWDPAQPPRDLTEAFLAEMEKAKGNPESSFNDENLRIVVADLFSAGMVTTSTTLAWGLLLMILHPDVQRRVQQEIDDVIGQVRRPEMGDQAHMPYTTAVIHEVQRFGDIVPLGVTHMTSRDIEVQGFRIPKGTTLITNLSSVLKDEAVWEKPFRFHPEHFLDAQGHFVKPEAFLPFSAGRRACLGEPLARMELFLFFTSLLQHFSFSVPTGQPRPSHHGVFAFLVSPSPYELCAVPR

| SMILES | IC50 [nM] |
| --- | --- |
| O=C(O)c1ccc(CNC(=O)c2c3ccccc3nn2Cc2ccc(C(F)(F)F)cc2)cc1 | > 50000 |

Target: Cytochrome P450 2C9 (Homo sapiens, UniProt P11712)
Test: Inhibition of CYP2C9 (unknown origin)
Type: ADME
Settings: not given

Chain of Cytochrome P450 2C9 (P11712 whole entry): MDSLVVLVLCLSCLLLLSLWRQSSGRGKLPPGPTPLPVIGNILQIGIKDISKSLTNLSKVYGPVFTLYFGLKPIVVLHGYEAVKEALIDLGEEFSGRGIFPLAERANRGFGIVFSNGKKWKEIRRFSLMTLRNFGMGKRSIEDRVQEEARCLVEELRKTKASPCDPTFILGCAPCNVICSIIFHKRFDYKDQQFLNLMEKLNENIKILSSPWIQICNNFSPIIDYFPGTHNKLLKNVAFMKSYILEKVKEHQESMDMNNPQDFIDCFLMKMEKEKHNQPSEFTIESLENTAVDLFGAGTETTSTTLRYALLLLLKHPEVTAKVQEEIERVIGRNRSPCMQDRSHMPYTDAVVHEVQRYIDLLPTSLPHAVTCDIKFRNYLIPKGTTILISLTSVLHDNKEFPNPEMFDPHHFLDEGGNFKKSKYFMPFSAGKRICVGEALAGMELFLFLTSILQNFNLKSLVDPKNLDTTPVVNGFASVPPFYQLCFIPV

| SMILES | IC50 [nM] |
| --- | --- |
| O=C(O)c1ccc(CNC(=O)c2c3ccccc3nn2Cc2ccc(C(F)(F)F)cc2)cc1 | > 50000 |

Target: T3, Prostaglandin E2 receptor EP3 subtype (Homo sapiens, UniProt P43115)
T3 sequence (P43115 whole entry): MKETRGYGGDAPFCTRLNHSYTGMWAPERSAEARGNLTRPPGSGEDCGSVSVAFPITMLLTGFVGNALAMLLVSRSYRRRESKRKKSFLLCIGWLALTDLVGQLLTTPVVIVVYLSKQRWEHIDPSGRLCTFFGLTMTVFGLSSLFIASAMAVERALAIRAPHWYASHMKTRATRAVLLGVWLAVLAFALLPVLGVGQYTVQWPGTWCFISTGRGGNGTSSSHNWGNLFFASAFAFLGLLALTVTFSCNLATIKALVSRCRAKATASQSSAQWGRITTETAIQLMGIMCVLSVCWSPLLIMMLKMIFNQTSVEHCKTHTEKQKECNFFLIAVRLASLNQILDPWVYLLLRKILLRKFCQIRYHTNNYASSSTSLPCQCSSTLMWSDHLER
Test: Antagonist activity at human EP3 receptor expressed in CHO cells co-expressing Galpha16 assessed as inhibition of PGE2 induced intracellular calcium flux preincubated for 20 mins followed by PGE2 stimulation and measured immediately by microplate reader analysis
Type: functional, cell-based
Settings: not given

| SMILES | IC50 [nM] |
| --- | --- |
| O=C(O)c1ccc(CNC(=O)c2c3ccccc3nn2Cc2ccc(C(F)(F)F)cc2)cc1 | > 10000 |

Target: Prostaglandin E2 receptor EP2 subtype (Homo sapiens, UniProt P43116)
Test: Antagonist activity at human EP2 receptor expressed in CHO cells co-expressing Galpha16 assessed as inhibition of PGE2 induced intracellular calcium flux preincubated for 20 mins followed by PGE2 stimulation and measured immediately by microplate reader analysis
Type: functional, cell-based
Settings: not given

Chain of Prostaglandin E2 receptor EP2 subtype (P43116 whole entry): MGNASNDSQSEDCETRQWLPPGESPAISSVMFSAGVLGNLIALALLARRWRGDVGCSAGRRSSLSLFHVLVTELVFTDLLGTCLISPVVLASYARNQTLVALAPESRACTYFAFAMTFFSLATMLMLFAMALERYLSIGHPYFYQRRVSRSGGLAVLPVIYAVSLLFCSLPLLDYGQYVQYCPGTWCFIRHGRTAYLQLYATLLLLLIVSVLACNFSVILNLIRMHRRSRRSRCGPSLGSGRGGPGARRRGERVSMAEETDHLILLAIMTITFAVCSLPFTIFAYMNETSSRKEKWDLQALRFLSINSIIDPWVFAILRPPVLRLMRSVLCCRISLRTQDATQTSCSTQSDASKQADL

| SMILES | IC50 [nM] |
| --- | --- |
| O=C(O)c1ccc(CNC(=O)c2c3ccccc3nn2Cc2ccc(C(F)(F)F)cc2)cc1 | > 10000 |

Tested on: not given
Test: not given
Settings: human, microsomes

| SMILES | CLH [mL/min/kg] |
| --- | --- |
| O=C(O)Cc1ccccc1Nc1c(Cl)cccc1Cl [DICLOFENAC] | 0.2079 |
| C[C@]12CC[C@H]3[C@@H](CCC4=CC(=O)CC[C@@]43C)[C@@H]1CC[C@@H]2O [TESTOSTERONE] | 0.1082 |

Target: T2, Prostaglandin E2 receptor EP4 subtype
Test: Antagonist activity at human EP4 receptor transfected in HEK293 cells assessed as inhibition of PGE2-induced cAMP production measured for 30 mins by Glosensor cAMP assay
Settings: not given

| SMILES | IC50 [nM] |
| --- | --- |
| O=C(O)c1ccc(CNC(=O)c2c3ccccc3nn2Cc2cccc(Cl)c2)cc1 | 6.9 |
| COc1ccc(Cn2nc3ccccc3c2C(=O)N[C@@H](C)c2ccc(C(=O)O)cc2)cc1 | 7.2 |
| O=C(O)c1cccc(NC(=O)c2c3ccccc3nn2Cc2cccc(F)c2)c1 | 10000 |
| O=C(O)c1cccc(NC(=O)c2c3ccccc3nn2Cc2ccc(F)cc2)c1 | 10000 |
| O=C(O)c1ccc(CNC(=O)c2c3ccccc3nn2CCOc2ccc(Cl)cc2)cc1 | 21.8 |
| O=C(O)c1ccc(C2(NC(=O)c3c4ccccc4nn3Cc3ccc(C(F)(F)F)cc3)CC2)cc1 | 6.9 |
| O=C(O)c1ccc(CNC(=O)c2nn(Cc3cccc(C(F)(F)F)c3)c3ccccc23)cc1 | 10000 |
| COc1cccc(Cn2nc3ccccc3c2C(=O)N[C@@H](C)c2ccc(C(=O)O)cc2)c1 | 19 |
| COc1ccc(Cn2nc3ccccc3c2C(=O)NCc2ccc(C(=O)O)cc2)cc1F | 2.1 |
| Cc1ccc(Cn2nc3ccccc3c2C(=O)NCc2ccc(C(=O)O)cc2)cc1 | 4.2 |
| O=C(O)c1ccc(CNC(=O)c2c3ccc(F)cc3nn2Cc2ccc(C(F)(F)F)cc2)cc1 | 5.7 |
| O=C(O)c1ccc(CNC(=O)c2nn(Cc3ccccc3)c3ccccc23)cc1 | 10000 |
| C[C@H](NC(=O)c1c2ccccc2nn1Cc1ccc(OC(F)(F)F)cc1)c1ccc(C(=O)O)cc1 | 4.3 |
| O=C(O)c1ccc(CNC(=O)c2c3ccccc3nn2CCOc2cccc(C(F)(F)F)c2)cc1 | 69.1 |
| COc1ccc(Cn2nc(C(=O)NCc3ccc(C(=O)O)cc3)c3ccccc32)cc1 | 10000 |
| COc1ccc(Cn2nc3ccccc3c2C(=O)NCc2ccc(C(=O)O)cc2)cc1Cl | 6.5 |
| COc1ccc2c(C(=O)NCc3ccc(C(=O)O)cc3)n(Cc3ccc(C(F)(F)F)cc3)nc2c1 | 59.4 |
| O=C(O)c1ccc(CNC(=O)c2nn(Cc3cccc(Cl)c3)c3ccccc23)cc1 | 10000 |
| COc1ccc(Cn2nc3ccccc3c2C(=O)NCc2ccc(C(=O)O)cc2)cc1 | 4.4 |
| O=C(O)c1ccc(CNC(=O)c2c3ccccc3nn2Cc2ccc(F)cc2)cc1 | 7.1 |
| O=C(O)c1ccc(CNC(=O)c2c3ccccc3nn2Cc2ccc(Cl)c(F)c2)cc1 | 1.7 |
| O=C(O)c1ccc(CNC(=O)c2nn(Cc3ccc(OC(F)(F)F)cc3)c3ccccc23)cc1 | 10000 |
| O=C(O)c1ccc(CNC(=O)c2c3ccccc3nn2Cc2ccc(C(F)(F)F)cc2F)cc1 | 2 |
| COc1c(F)cc(Cn2nc3ccccc3c2C(=O)NCc2ccc(C(=O)O)cc2)cc1F | 7.5 |
| COc1cccc(Cn2nc3ccccc3c2C(=O)NCc2ccc(C(=O)O)cc2)c1 | 12 |
| O=C(O)c1ccc(CNC(=O)c2c3ccccc3nn2Cc2cccc(F)c2)cc1 | 17 |
| O=C(O)c1ccc(CNC(=O)c2nn(Cc3ccc(Cl)cc3)c3ccccc23)cc1 | 10000 |
| COc1cccc(Cn2nc(C(=O)NCc3ccc(C(=O)O)cc3)c3ccccc32)c1 | 10000 |
| O=C(O)c1ccc(CNC(=O)c2nn(Cc3ccc(C(F)(F)F)cc3)c3ccccc23)cc1 | 10000 |

Target: Prostaglandin E2 receptor EP4 subtype (Mus musculus, UniProt P32240)
Test: Antagonist activity at mouse EP4 receptor transfected in HEK293 cells assessed as inhibition of PGE2-induced cAMP production measured for 30 mins by Glosensor cAMP assay
Type: functional, cell-based
Settings: not given

Chain of Prostaglandin E2 receptor EP4 subtype (Mus musculus, UniProt P32240) (P32240 whole entry): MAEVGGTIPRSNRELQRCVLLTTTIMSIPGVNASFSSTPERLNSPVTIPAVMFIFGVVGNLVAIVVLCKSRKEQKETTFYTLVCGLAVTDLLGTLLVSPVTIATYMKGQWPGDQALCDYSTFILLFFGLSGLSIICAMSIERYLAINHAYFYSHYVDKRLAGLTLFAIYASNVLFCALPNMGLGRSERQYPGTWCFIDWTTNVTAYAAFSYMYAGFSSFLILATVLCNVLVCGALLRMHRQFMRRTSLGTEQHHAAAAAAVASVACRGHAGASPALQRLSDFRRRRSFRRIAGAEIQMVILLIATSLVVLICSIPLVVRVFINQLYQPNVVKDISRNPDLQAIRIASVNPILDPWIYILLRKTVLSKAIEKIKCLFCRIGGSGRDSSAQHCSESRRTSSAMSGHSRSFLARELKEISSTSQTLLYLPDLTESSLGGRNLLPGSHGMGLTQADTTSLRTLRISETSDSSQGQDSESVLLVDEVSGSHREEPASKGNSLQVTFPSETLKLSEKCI

| SMILES | IC50 [nM] |
| --- | --- |
| O=C(O)c1ccc(CNC(=O)c2c3ccccc3nn2Cc2ccc(C(F)(F)F)cc2)cc1 | 1.6 |

Target: Cytochrome P450 2C19 (Homo sapiens, UniProt P33261)
Test: Inhibition of CYP2C19 (unknown origin)
Type: ADME
Settings: not given

Chain of Cytochrome P450 2C19 (P33261 whole entry): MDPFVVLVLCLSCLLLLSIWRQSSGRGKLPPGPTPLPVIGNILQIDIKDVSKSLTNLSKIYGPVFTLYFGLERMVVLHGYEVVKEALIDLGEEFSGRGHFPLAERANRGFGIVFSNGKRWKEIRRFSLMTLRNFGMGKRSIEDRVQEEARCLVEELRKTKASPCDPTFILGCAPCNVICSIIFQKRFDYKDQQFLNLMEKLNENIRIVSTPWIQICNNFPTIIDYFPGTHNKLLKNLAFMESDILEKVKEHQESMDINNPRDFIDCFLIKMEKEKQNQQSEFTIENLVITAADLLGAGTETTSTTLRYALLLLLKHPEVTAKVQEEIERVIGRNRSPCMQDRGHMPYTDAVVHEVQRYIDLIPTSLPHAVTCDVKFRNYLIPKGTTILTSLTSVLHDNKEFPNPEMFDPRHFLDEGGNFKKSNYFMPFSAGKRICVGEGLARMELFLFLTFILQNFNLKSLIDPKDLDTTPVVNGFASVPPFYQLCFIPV

| SMILES | IC50 [nM] |
| --- | --- |
| O=C(O)c1ccc(CNC(=O)c2c3ccccc3nn2Cc2ccc(C(F)(F)F)cc2)cc1 | > 50000 |
